Experimental data published in the supplement of paper PMC10307832.

What was measured:
Test in all cases: relative viability (nuclei count vs DMSO), 5 days (fraction); higher = more cells survive
Cediranib + Lapatinib = compound: COc1cc2c(Oc3ccc4[nH]c(C)cc4c3F)ncnc2cc1OCCCN1CCCC1 [Cediranib] + CS(=O)(=O)CCNCc1ccc(-c2ccc3ncnc(Nc4ccc(OCc5cccc(F)c5)c(Cl)c4)c3c2)o1 [Lapatinib] (partner 2 µM)
Outline: (§1)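 A single step with final 0.05% Triton X-100, 1% formaldehyde and 1 ug/ml Hoechst fixed the cells and stained nuclei 5 days after treatment. Lung cancer cell lines in 1536-well plates had been treated by pin tool the day after seeding with one drug alone or a fixed anchor-drug dose plus five library-drug doses (not always all listed) in √10 steps, and nuclei were counted on 4× images. Relative viability is the ratio of nuclei in treated wells to nuclei in vehicle wells, taken as the median of duplicate plates.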

Cediranib + Phenformin = compound: COc1cc2c(Oc3ccc4[nH]c(C)cc4c3F)ncnc2cc1OCCCN1CCCC1 [Cediranib] + N=C(N)NC(=N)NCCc1ccccc1 [Phenformin] (partner 250 µM)
Outline: as §1

Decitabine + Palbociclib = compound: Nc1ncn([C@H]2C[C@H](O)[C@@H](CO)O2)c(=O)n1 [Decitabine] + CC(=O)c1c(C)c2cnc(Nc3ccc(N4CCNCC4)cn3)nc2n(C2CCCC2)c1=O [Palbociclib] (partner 0.5 µM)
Outline: as §1

Decitabine + AZD7762 = compound: Nc1ncn([C@H]2C[C@H](O)[C@@H](CO)O2)c(=O)n1 [Decitabine] + NC(=O)Nc1cc(-c2cccc(F)c2)sc1C(=O)N[C@H]1CCCNC1 [AZD7762] (partner 0.2 µM)
Outline: as §1

Cell Line	relative viability (Cediranib + Lapatinib; first compound 0.04 µM)	relative viability (Cediranib + Lapatinib; first compound 0.1265 µM)	relative viability (Cediranib + Lapatinib; first compound 0.4 µM)	relative viability (Cediranib + Lapatinib; first compound 1.265 µM)	relative viability (Cediranib + Lapatinib; first compound 4 µM)	relative viability (Cediranib + Phenformin; first compound 0.04 µM)	relative viability (Cediranib + Phenformin; first compound 0.1265 µM)	relative viability (Cediranib + Phenformin; first compound 0.4 µM)	relative viability (Cediranib + Phenformin; first compound 1.265 µM)	relative viability (Cediranib + Phenformin; first compound 4 µM)	relative viability (Decitabine + Palbociclib; first compound 0.04 µM)	relative viability (Decitabine + Palbociclib; first compound 0.1265 µM)	relative viability (Decitabine + Palbociclib; first compound 0.4 µM)	relative viability (Decitabine + Palbociclib; first compound 1.265 µM)	relative viability (Decitabine + Palbociclib; first compound 4 µM)	relative viability (Decitabine + AZD7762; first compound 0.04 µM)	relative viability (Decitabine + AZD7762; first compound 0.1265 µM)	relative viability (Decitabine + AZD7762; first compound 0.4 µM)	relative viability (Decitabine + AZD7762; first compound 1.265 µM)	relative viability (Decitabine + AZD7762; first compound 4 µM)
LOU-NH91	0.818	0.788	0.807	0.676	0.761	0.688	0.986	0.696	0.625	0.673	0.514	0.592	0.588	0.507	0.415	0.735	0.847	0.732	0.72	0.73
A549	0.927	1.01	0.949	0.994	0.992	0.135	0.121	0.211	0.153	0.212	–	–	–	–	–	–	–	–	–	–
H3255	0.272	0.228	0.271	0.246	0.254	0.404	–	0.337	0.373	0.312	0.333	0.343	0.3	0.302	0.307	0.662	0.876	0.617	0.682	0.601
NCI-H1395	0.961	–	1.35	0.97	1.01	0.49	0.427	0.467	0.444	0.42	0.583	0.606	0.6	0.55	0.523	0.379	0.39	0.446	0.391	0.348
LC-2-ad	1.07	0.656	0.94	1.02	0.731	0.595	0.497	0.612	0.569	0.554	0.498	0.538	0.48	0.365	0.463	0.769	0.846	0.925	0.491	0.63
